Data on five compounds can be found in publication PMC4603705, “A bioinspired peptide scaffold with high antibiotic activity and low in vivo toxicity” (Scientific Reports, 2015).

For one assay, the system named is P. aeruginosa. As for the experimental part:
(§1) Strains of E. coli and P. aeruginosa with resistance to quinolones and carbapenems as well as multi-drug-resistant bacteria were tested.
(§2) MICs were measured after 18–20 h of incubation in sterile 96-well plates (Corning Costar 3598 microtiter plates) in Mueller Hinton Broth (MHB) culture medium, (Difco, USA), according to well known in vitro protocols. Bacterial strains in Table 1 were: P. aeruginosa ATTC 9027, E. coli ATTC 8739, S. aureus ATTC 6538, and E. faecalis ATTC 29212. MICs shown in table 4 were performed by Mary Conrad at Cubist Pharmaceuticals (Lexington, MA) in non-binding surface plates.

For the next assay, the system named is E. coli. Here is the method: as §1, §2
In the next assay the test system is P. aeruginosa ATTC 9027. In kind it is cell-based, Pseudomonas aeruginosa. The following applies: for MIC P. a.: Supplementary Table S1, P. aeruginosa. As for the experimental part: as §2
Another assay deals with S. aureus ATTC 6538. Description: microbe, parasite or virus in culture. It counts as cell-based, Staphylococcus aureus. Particulars: for MIC S. a.: Supplementary Table S1, S. aureus. As for the experimental part: as §2
The test system of the next assay is E. coli ATTC 8739. In kind it is cell-based, Escherichia coli. The following applies: for MIC E. c.: Supplementary Table S1, E. coli. As for the experimental part: as §2
Where [1] appears, read: resistant to nalidixic acid, cotrimoxazole and ampicillin.

In brackets after ≈: the same amount, converted by molar mass. Bridge positions count the residues as written; N and C are the ends. Square brackets hold non-standard residues; d marks the D form. Peptide text beside a SMILES is read from it. * marks the point of attachment. Nonanoyl = CCCCCCCCC(=O)*; Dab = NCC[C@H](N)C(=O)O

Take colistin [PxE, reference compound]: in the assay with P. aeruginosa (resistant to ceftazidime, ciprofloxacin, imipenem, piperacillin-tazobactam), the “MIC P. aeruginosa 38a” value was 1 mg/L. The “MIC P. aeruginosa 40b” value against P. aeruginosa (resistant to imipenem) was found to be 1 mg/L. Moreover, the “MIC E. coli NDM-1” value in the assay with E. coli (highly-resistant, New Delhi metallo-beta-lactamase gene) stood at 0.5 mg/L. Also, in the assay on E. coli (resistant to nalidixic acid), the “MIC E. coli VAL 5” value worked out at 0.25 mg/L. In the assay with E. coli (setting [1]), the “MIC E. coli MAC 21a” value is 0.5 mg/L and the “MIC E. coli VAL 10” value was determined as 0.5 mg/L.
`CCCCCCCCC(=O)N[C@@H](CCN)C(=O)N[C@H](C(=O)N[C@@H](CCN)C(=O)N[C@H]1CSSC[C@@H](C(N)=O)NC(=O)[C@H](CCN)NC(=O)[C@H](CCCNC(=N)N)NC(=O)[C@H](CC(C)C)NC(=O)[C@@H](Cc2ccccc2)NC(=O)[C@H](CCN)NC1=O)[C@@H](C)O` [Analog 4, nonanoyl-Dab-Thr-Dab-Cys-Dab-Phe-Leu-Arg-Dab-Cys] (Nonanoyl-[Dab]T[Dab]C[Dab][dF]LR[Dab]C-NH2; disulfide 4-10): the “MIC P. aeruginosa” value against P. aeruginosa ATTC 9027 (ATTC 9027) lay in the range of 2 to 4 mg/L. Besides, the “MIC S. aureus” value with S. aureus ATTC 6538 (ATTC 6538) is greater than 32 mg/L. The “MIC E. coli” value in the assay with E. coli ATTC 8739 (ATTC 8739) was determined as 8 mg/L (≈ 6.25 µM).
Turning to “C9-Arg-Thr-Dab-Cys-Arg-Phe-Leu-Arg-Dab-Cys [Analog 9]”, in the assay with P. aeruginosa ATTC 9027, the MIC P. a. was 128 mg/L. The compound also gave an MIC S. a. with S. aureus ATTC 6538 of 16 mg/L. In the assay on E. coli ATTC 8739, this compound yielded an MIC E. c. of 16 mg/L.
“C9-Arg-Thr-Arg-Cys-Dab-Phe-Met-Arg-Dab-Cys [Analog 22]” came in with an MIC P. a. against P. aeruginosa ATTC 9027 of 16 mg/L. The compound further displayed an MIC S. a. with S. aureus ATTC 6538 of 32 mg/L. Further, the MIC E. c. against E. coli ATTC 8739 was found to be 16 mg/L.
Turning to “C9-Arg-Thr-Dab-Cys-Dab-Phe-Thr-Arg-Dab-Cys [Analog 27]”, in the assay on P. aeruginosa ATTC 9027, the MIC P. a. was 8 mg/L. The compound also registered an MIC S. a. against S. aureus ATTC 6538 of 64 mg/L. This compound gave an MIC E. c. against E. coli ATTC 8739 of 16 mg/L.
